Source: patent publication US7468380B2, “Nitrogen-containing aromatic derivatives” (Eisai R&D Management Co., Ltd., priority 2002, dated 2008)

Test system: VEGF high-expressing pancreatic cancer cells (KP-1/VEGF)
Assay: Antitumor activity on KP-1/VEGF cells in subcutaneous xenograft models
Format: in vivo, mouse
Conditions: 60 mg/kg/day, oral twice a day, 2 weeks, Balb/c (nu/nu) mice
Experimental: VEGF high-expressing pancreatic cancer cells (KP-1/VEGF) suspended in PBS at a concentration of 1×10^7 cells/ml were transplanted under the right flank skin of 6-week-old female Balb/c (nu/nu) mice in a volume of 0.1 ml. When the tumor volume reached approximately 100 mm^3, the test substance was orally administered twice a day over a period of 2 weeks with a schedule of 5 days per week. The test substance was suspended in 0.5% methyl cellulose for an administered volume of 0.1 ml/10 g body weight. The tumor size was measured twice a week using a micrometer caliper. The tumor volume was determined by measuring the long and short diameters of the tumor with a micrometer caliper, and calculating ½×(long diameter×short diameter×short diameter). The experiment was conducted using 10 mice in the control (solvent-administered) group and 5 mice in each test substance-administered group.

CNC(=O)n1ccc2cc(Oc3ccnc(NC(=O)N4CCC(N5CCCC5)CC4)c3)ccc21 [Example 46, N1-Methyl-5-(2-(((4-(pyrrolidin-1-yl)piperidin-1-yl)carbonyl)amino)pyridin-4-yloxy)-1H-1-indolecarboxamide]
proportion of the tumor volume to that of control: 60.0%
